Test results from patent publication US20220259193A1, “KCNT1 INHIBITORS AND METHODS OF USE” (Praxis Precision Medicines, Inc., priority 2019, published 2022).

Molecular target: T1, KCNT1 (KNa1.1, Slack) (Homo sapiens, UniProt Q5JUK3)
T1 construct: expressed in transfected cells; host or cells: HEK-TREX (tetracycline-inducible HEK cell line)
T1 sequence (Q5JUK3 1-1230): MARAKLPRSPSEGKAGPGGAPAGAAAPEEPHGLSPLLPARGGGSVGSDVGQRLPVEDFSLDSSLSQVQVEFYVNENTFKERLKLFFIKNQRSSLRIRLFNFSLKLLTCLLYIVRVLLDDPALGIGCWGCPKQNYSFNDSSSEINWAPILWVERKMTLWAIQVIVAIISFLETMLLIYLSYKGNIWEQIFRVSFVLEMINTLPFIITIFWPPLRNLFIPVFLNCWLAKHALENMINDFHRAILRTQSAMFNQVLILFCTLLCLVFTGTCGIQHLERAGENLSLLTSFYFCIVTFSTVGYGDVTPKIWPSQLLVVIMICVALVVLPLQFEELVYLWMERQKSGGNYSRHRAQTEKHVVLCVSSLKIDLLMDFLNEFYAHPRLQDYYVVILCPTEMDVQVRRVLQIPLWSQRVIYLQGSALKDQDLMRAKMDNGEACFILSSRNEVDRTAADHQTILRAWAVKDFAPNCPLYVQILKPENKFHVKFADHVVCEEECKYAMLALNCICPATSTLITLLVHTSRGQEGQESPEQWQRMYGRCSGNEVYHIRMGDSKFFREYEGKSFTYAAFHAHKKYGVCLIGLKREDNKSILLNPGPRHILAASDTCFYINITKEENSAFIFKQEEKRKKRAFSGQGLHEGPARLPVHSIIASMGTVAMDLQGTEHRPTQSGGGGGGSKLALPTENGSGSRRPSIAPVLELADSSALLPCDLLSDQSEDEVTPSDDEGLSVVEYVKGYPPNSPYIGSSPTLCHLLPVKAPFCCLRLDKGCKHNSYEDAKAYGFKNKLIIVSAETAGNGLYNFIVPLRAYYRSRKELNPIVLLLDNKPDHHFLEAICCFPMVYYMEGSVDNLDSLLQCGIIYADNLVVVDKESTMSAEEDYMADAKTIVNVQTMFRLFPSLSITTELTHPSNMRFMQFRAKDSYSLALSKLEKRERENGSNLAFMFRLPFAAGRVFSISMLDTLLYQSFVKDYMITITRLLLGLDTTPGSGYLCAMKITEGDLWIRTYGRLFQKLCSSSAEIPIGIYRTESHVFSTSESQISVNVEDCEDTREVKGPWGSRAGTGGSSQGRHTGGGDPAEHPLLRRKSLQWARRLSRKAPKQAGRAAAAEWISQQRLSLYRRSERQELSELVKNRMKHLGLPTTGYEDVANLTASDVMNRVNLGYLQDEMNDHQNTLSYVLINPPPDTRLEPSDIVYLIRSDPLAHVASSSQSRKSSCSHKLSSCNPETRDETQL
Assay: KCNT1 patch clamp assay (SyncroPatch 384PE automated patch clamp)
Format: cell-based
Conditions: tetracycline inducible HEK-TREX cell line; perforated patch; step from −80 mV to 0 mV; room temperature; read-out: KCNT1-WT IC50
In short: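 Tetracycline-inducible HEK-TREX cells; perforated-patch (10 μM escin) population recordings at room temperature, holding −80 mV with 100 ms step to 0 mV.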

| IC50 | Structure (SMILES) |
| --- | --- |
| 1000 to 20000 nM | Cn1nc(C(F)(F)F)cc1C(=O)NC1(c2nc(-c3cccc(F)c3)no2)CCOC1 (stereo not drawn) [Compound 148] |
| 1000 to 20000 nM | Cc1nn(C(C)C)cc1C(=O)NC(C)c1nc(-c2cccc(OC(F)F)c2)no1 (stereo not drawn) [Compound 101] |
| ≥ 20000 nM | COCc1nn(C)cc1C(=O)N[C@@H](C)c1nc(-c2cccc(F)c2)no1 [Compound 156] |
| 1000 to 20000 nM | Cn1nc(C(F)(F)F)cc1C(=O)NC(c1nc(-c2cccc(F)c2)no1)C1COC1 (stereo not drawn) [Compound 147] |
| 1000 to 20000 nM | CC(=O)NC[C@@H](NC(=O)c1cc(C(F)(F)F)nn1C)c1nc(-c2cccc(F)c2)no1 [Compound 137] |
| 1000 to 20000 nM | Cc1nn(C(C)C)cc1C(=O)NC(C)c1nc(-c2ccc(C(F)(F)F)cc2)no1 (stereo not drawn) [Compound 98] |
| 1000 to 20000 nM | Cn1nc(C(F)(F)F)cc1C(=O)NC1(c2nc(-c3cccc(F)c3)no2)CCOCC1 [Compound 118] |
| ≤ 1000 nM | Cn1nc(C2CC2)cc1C(=O)N[C@@H](c1nc(-c2cccc(F)c2)no1)C1CC1 (single isomer, unassigned) [Compound 108] |
| 1000 to 20000 nM | Cn1nc(C(F)(F)F)cc1C(=O)NC(CN)c1nc(-c2cccc(F)c2)no1 (stereo not drawn) [Compound 167, N-[2-amino-1-[3-(3-fluorophenyl)-1,2,4-oxadiazol-5-yl]ethyl]-2-methyl-5-(trifluoromethyl)pyrazole-3-carboxamide] |
| 1000 to 20000 nM | C[C@H](NC(=O)c1cc(C(F)(F)F)nn1C)c1nc(-c2ccnc(CO)c2)no1 [Compound 258, N-[(1S)-1-[3-[2-(hydroxymethyl)-4-pyridyl]-1,2,4-oxadiazol-5-yl]ethyl]-2-methyl-5-(trifluoromethyl)pyrazole-3-carboxamide] |
| 1000 to 20000 nM | C[C@@H](NC(=O)OC(C)(C)C)c1nc(-c2cccc(F)c2)no1 [Compound 282, tert-butyl (R)-(1-(3-(3-fluorophenyl)-1,2,4-oxadiazol-5-yl)ethyl)carbamate] |
| ≤ 1000 nM | CCOc1cc(-c2noc([C@H](C)NC(=O)OC(C)(C)C)n2)ccn1 [Compound 290, tert-butyl (S)-(1-(3-(2-ethoxypyridin-4-yl)-1,2,4-oxadiazol-5-yl)ethyl)carbamate] |
| ≤ 1000 nM | CC(NC(=O)c1cc(C(F)(F)F)nn1C)c1nc(-c2ccnc(N3CCCCC3)c2)no1 (single isomer, unassigned) [Compound 210] |
| ≤ 1000 nM | Cc1cccc(-c2noc(C(C)NC(=O)c3cc(C(F)F)nn3C)n2)c1 (stereo not drawn) [Compound 21] |
| 1000 to 20000 nM | Cc1nn(C(C)C)cc1C(=O)N[C@@H](C)c1nc(-c2ccc(F)c(F)c2)no1 [Compound 87] |
| ≤ 1000 nM | CC(C)Oc1cc(-c2noc([C@H](C)NC(=O)c3cc(C(F)(F)F)nn3C)n2)ccn1 [Compound 201, (S)—N-(1-(3-(2-isopropoxypyridin-4-yl)-1,2,4-oxadiazol-5-yl)ethyl)-1-methyl-3-(trifluoromethyl)-1H-pyrazole-5-carboxamide] |
| ≤ 1000 nM | CC[C@H](NC(=O)c1cc(C(F)F)nn1C)c1nc(-c2cccc(F)c2)no1 [Compound 120] |
| ≤ 1000 nM | COC[C@@H](NC(=O)c1cc(C(F)(F)F)nn1C)c1nc(-c2cccc(C)c2)no1 (single isomer, unassigned) [Compound 80] |
| ≥ 20000 nM | CC(NC(=O)c1cc(C(F)(F)F)nn1C)c1nc(-c2cccc(C(=O)O)c2)no1 (stereo not drawn) [Compound 182, 3-(5-(1-(1-methyl-3-(trifluoromethyl)-1H-pyrazole-5-carboxamido)ethyl)-1,2,4-oxadiazol-3-yl)benzoic Acid] |
| 1000 to 20000 nM | Cn1nc(C(F)(F)F)cc1C(=O)NC(CS(C)(=O)=O)c1nc(-c2cccc(F)c2)no1 (stereo not drawn) [Compound 171] |
| ≤ 1000 nM | CC(NC(=O)c1cc(C(F)(F)F)nn1C(F)F)c1nc(-c2cccc(Cl)c2)no1 (stereo not drawn) [Compound 73] |
| 1000 to 20000 nM | CC(NC(=O)c1cc(C2CC2)nn1C)c1nc(-c2ccc(F)cc2)no1 (stereo not drawn) [Compound 8] |
| ≥ 20000 nM | CC(NC(=O)c1cc(C2CC2)nn1C)c1nc(-c2c(F)cccc2F)no1 (stereo not drawn) [Compound 7] |
| ≤ 1000 nM | Cc1cccc(-c2noc(C(C)NC(=O)c3cc(C(C)C)nn3C)n2)c1 (stereo not drawn) [Compound 10] |
| ≤ 1000 nM | C[C@H](NC(=O)c1cc(C(F)(F)F)nn1Cc1ccccc1)c1nc(-c2ccnc(C(F)(F)F)c2)no1 [Compound 241, (S)-1-benzyl-3-(trifluoromethyl)-N-(1-(3-(2-(trifluoromethyl)pyridin-4-yl)-1,2,4-oxadiazol-5-yl)ethyl)-1H-pyrazole-5-carboxamide] |
| ≥ 20000 nM | CNC(=O)C[C@@H](NC(=O)c1cc(C(F)(F)F)nn1C)c1nc(-c2cccc(F)c2)no1 (single isomer, unassigned) [Compound 114] |
| ≤ 1000 nM | CC[C@H](NC(=O)c1cc(C)nn1-c1ccccc1)c1nc(-c2ccnc(C)c2)no1 [Compound 218, (S)-3-methyl-N-(1-(3-(2-methylpyridin-4-yl)-1,2,4-oxadiazol-5-yl)propyl)-1-phenyl-1H-pyrazole-5-carboxamide] |
